Here are results for 7 molecules from patent US12473295B2, “Substituted straight chain spiro derivatives” (Janssen Pharmaceutica NV, priority 2019, dated 2025).

Series [1] deals with KO-52 cells. As to the kind of experiment: Proliferation assay (spheroid growth, 8 days), KO-52 control cell line. Conditions: read-out: spheroid assay_OneTime KO-52 IC50. Format: cell-based, human. Put shortly: (§1)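 Spheroid size on day 8, taken as live-cell imaging confluence, served as readout after 8-day compound exposure (0.3% DMSO, 37 °C, 5% CO2) in round-bottom low-attachment wells. Seeding was 200 cells for MOLM14 and OCI-AML3, 300 for KO-52. IC50 came from % effect versus DMSO and reference baseline, fitted with variable slope.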

Series [2] concerns the target hERG potassium channel (Homo sapiens (Human), UniProt Q12809). In words: Effect on membrane potassium current IKr in hERG transfected CHO cells, Protocol 1 (QPatch). The class given is cell-based. The protocol: 8) Effect on the Membrane Potassium Current IKr in hERG Transfected Cell Lines
• CHO Chinese hamster ovary cell line • DMSO Dimethylsulfoxide • hERG human ether-á-go-go-related gene • IKr rapidly activating delayed-rectifier K^+ current Methods
Experiments were performed using CHO cells stably expressing the hERG potassium channel. Cells were grown at 37° C. and 5% CO2 in culture flasks in Ham's F12 Medium supplemented with 10% heat-inactivated fetal calf serum, hygromycin B (100 μg/ml) and geneticin (100 μg/ml). For use in the automated patch-clamp system QPatch (Sophion) cells were harvested to obtain cell suspension of single cells.
Solutions: The bath solution contained (in mM) 145 NaCl, 4 KCl, 10 glucose, 10 HEPES ((4-(2-hydroxyethyl)-1-piperazineethanesulfonic acid), 2 CaCl2 and 1 MgCl2 (pH 7.4 with NaOH). The pipette solution contained (in mM) 120 KCl, 10 EGTA (Ethylene glycol-bis(2-aminoethylether)-N,N,N′,N′-tetraacetic acid), 10 HEPES, 5.374 CaCl2 and 1.75 MgCl2 (pH 7.2 with KOH).
Patch-clamp experiments were performed in the voltage-clamp mode and whole-cell currents were recorded with an automated patch-clamp assay utilizing the QPatch system (Sophion). Current signals were amplified and digitized, stored and analyzed by using the QPatch assay software.
The holding potential was −80 mV. The hERG current (K^+-selective outward current) was determined as the maximal tail current at −40 mV after a 2 second depolarization to +60 mV. Pulse cycling rate was 15 s. A short pulse (90 ms) to −40 mV served as a baseline step to calculate the tail current amplitude. After establishing whole-cell configuration and a stability period, the solvent control (0.3% DMSO) was applied for 5 minutes followed by the test substance by four increasing concentrations of 3×10^−7 M, 3×10^−6 M, 10^−5 M and 3×10^−5 M. Each concentration of the test substance was applied twice. The effect of each concentration was determined after 5 min as an average current of 3 sequential voltage pulses. To determine the extent of block the residual current was compared with vehicle pre-treatment.
Concentration/response relations were calculated by non-linear least-squares fits to the individual data points. The half-maximal inhibiting concentration (IC50) was calculated by the fitting routine.

Series [3] relates to MEIS1 mRNA. In words: MEIS1 mRNA expression assay (Quantigene Singleplex) in MOLM14 cells.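 Also: MEIS1 transcript levels read by probe hybridization and normalized to RPL28 mRNA, with IC50 fitted to fold changes across a rising compound concentration series.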 Format: cell-based, human.
Series [4] concerns the target menin/MLL (terbium chelate-labeled menin, FITC-MBM1 peptide) (Homo sapiens (Human), UniProt O00255). As to the kind of experiment: Menin/MLL homogenous time-resolved fluorescence (HTRF) assay.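 Also: IC50 from percent inhibition of HTRF signal, normalized between wells without competitor and wells with a saturating competitor that displaces FITC-MBM1 from His-tagged menin.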 Format: binding. The conditions noted are these: HTRF-30 min incubation IC50, 30 min incubation.
Series [5] concerns MOLM14 cells. As to the kind of experiment: Proliferation assay (spheroid growth, 8 days), MOLM14.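 Also: spheroid size read as confluence by live-cell imaging, compounds added at a range of concentrations with 0.3% DMSO, DMSO-treated wells = 0%, highest reference dose = low control.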 Format: cell-based, human. Conditions: MOLM14, 8 days, read-out: spheroid assay_OneTime MOLM14 IC50.
Series [6] deals with OCI-AML3 cells. As to the kind of experiment: Proliferation assay (spheroid growth, 8 days), OCI-AML3. Format: cell-based, human. An outline of the steps: as §1
Series [7] has as its system iCell Cardiomyocytes2. As to the kind of experiment: Ca2+-fluorescence assay in human pluripotent stem cell-derived cardiomyocytes (CTCM human), iCell Cardiomyocytes2. The class given is cell-based. On the set-up: key: Green: No concern; Yellow: Low concern; Red: High concern; Black: Very high concern due to arrhythmic events. The conditions noted are these: 30 min; for Color @ 0.1 μM (hazard score): iCell Cardiomyocytes2, 0.1 μM; for Color @ 0.1 μM (hazard score) / Color @ 1 μM (hazard score): range 0.1-30 μM; for Color @ 0.3 μM (hazard score): iCell Cardiomyocytes2, 0.3 μM; for Color @ 1 μM (hazard score): iCell Cardiomyocytes2, 1 μM; for Color @ 3 μM (hazard score): iCell Cardiomyocytes2, 3 μM; for Color @ 10 μM (hazard score): iCell Cardiomyocytes2, 10 μM; for Color @ 30 μM (hazard score): iCell Cardiomyocytes2, 30 μM. Here is the method: 7) Cardio-Electrophysiological Effects of the Testing Compounds in Synchronously Beating Human Pluripotent Stem Cell-Derived Cardiomyocytes (hSC-CMs) Using a Ca^2+-Fluorescence Assay (CTCM Human)
Compounds were tested in the 96-well plates
Compounds were tested at 0.1 μM, 0.2 μM, 0.5 μM, 1 μM, 2.5 μM and 5 μM (n=4 per dose) on Cor.4U 9-Cardiomyocytes or on iCell® Cardiomyocytes2
Alternatively, compounds were tested at 0.1 μM, 0.3 μM; 1 μM, 3 μM, 10 μM and 30 μM (n=4 per dose) mostly on iCell® Cardiomyocytes2
Dimethylsulfoxide (DMSO). The solutions of the compound in DMSO or its solvent (final concentration of 0.1% DMSO; n=8)
Preparation of Test Article and Controls
Tested compounds were dissolved in DMSO at 1000-fold the intended concentrations. A compound “mother-plate” was made, containing the test compounds and positive and negative controls at 1000-fold the final concentrations. At the experiment day, these stock solutions were diluted with Tyrode (Sigma), supplemented with 10 mM HEPES (Gibco), to 2-fold the intended concentration (in round bottom compound plates). Final DMSO concentration in test solutions and vehicle control was 0.1%.
Second line hSC derived cardiomyocyte called iCell®, Cardiomyocytes2 were purchased from FUJIFILM Cellular Dynamics (USA). The experiments with test drugs are carried out 5 to 7 days after plating the cells onto the plate to have a living, beating monolayer of hiPSC-derived cardiomyocytes. The beating monolayer in 96-well-plates are normally taken from 2 Vials of frozen iCell) Cardiomyocytes2 (≈5 million cells/vial), which will be plated onto […] 96-well plates (≈50K/well).
Before Start of Experiment
At least one hour before the start of the experiments the normal cell medium was replaced with Tyrode solution with Calcium dye (see below).
Cal 520 dye (AAT Bioquest) was dissolved in 11 ml of Tyrode supplemented with 10 mM HEPES and warmed up to 37° C. before adding to the cells.
35 μl cell culture medium was removed from each well and replaced with 35 μl of pre-warmed Cal 520 dye solution and cell plate was incubated for 45 min at 37° C./5% CO2. Cells were incubated for 5 min at 37° C.
Spontaneous electrical activity is recorded, using Cal520™ (AAT Bioquest) calcium fluorescence-dye signaling. This dye integrates the total intracellular calcium activity over the whole well. A bottle of Cal520 dye (50 μg, MW: 1103/mol) is dissolved with 50 μl DMSO as a stock solution of 0.9 mM. 50 μL of the stock solution of the dye was added to 10 ml Tryodes solution to have dye concentration of 4.5 μM. Subsequently, 35 μl of this dye solution was added into each well, to have a final dye concentration of 1.58 μM. The current dye protocol on this CTCM human assay was established recently (Ivan Kopljar et al, Journal of Pharmacological and toxicological methods 2018. 91: 80-86; Lu et al., Tox Sci 2019. 170 (2): 345-356).
Fluorescent signals (Ca^2+ transient morphology) were measured using the Functional Drug Screen System (FDSS/μCell; Hamamatsu, Japan) and the recordings were subsequently analyzed off-line, using appropriate software e.g. Notocord.
The cell plate was loaded into the FDSS/μCell for a test run: Ca^2+ transients were measured for 4 minutes to check for synchronous beating of the cardiomyocytes in each well. All 96 wells were measured simultaneously (sampling interval: 0.06 s, short exposure time: 10 ms; excitation wavelength 480 nm; emission wavelength 540 nm; FDSS/μCell warmed to 37° C.).
During the compound addition step, 100 μl of the respective double-concentrated test solutions was pipetted into each well simultaneously.
Data were analyzed off-line using appropriate software e.g. Notocord-Hem (version 4.3).
The following parameters of the Ca^2′ transient morphology were measured: • beat rate (BR) • amplitude of the Ca^2+ transient (Amp), • CTD90: Ca^2+ transient duration at 90% (time to 90% of the initial base value). […]

The mark [8] stands for this setting: Homo sapiens, MOLM-14, 48 h, 48 hours incubation.
The mark [9] stands for this setting: Homo sapiens, OCI-AML-3, […], OCI-AML3, 8 days.

pIC50: −log10 of the molar value. Counter-ions that a name gives are not always drawn. Like-named read-outs stand apart in the source and are kept apart here.

Sequence of hERG potassium channel (Q12809 whole entry): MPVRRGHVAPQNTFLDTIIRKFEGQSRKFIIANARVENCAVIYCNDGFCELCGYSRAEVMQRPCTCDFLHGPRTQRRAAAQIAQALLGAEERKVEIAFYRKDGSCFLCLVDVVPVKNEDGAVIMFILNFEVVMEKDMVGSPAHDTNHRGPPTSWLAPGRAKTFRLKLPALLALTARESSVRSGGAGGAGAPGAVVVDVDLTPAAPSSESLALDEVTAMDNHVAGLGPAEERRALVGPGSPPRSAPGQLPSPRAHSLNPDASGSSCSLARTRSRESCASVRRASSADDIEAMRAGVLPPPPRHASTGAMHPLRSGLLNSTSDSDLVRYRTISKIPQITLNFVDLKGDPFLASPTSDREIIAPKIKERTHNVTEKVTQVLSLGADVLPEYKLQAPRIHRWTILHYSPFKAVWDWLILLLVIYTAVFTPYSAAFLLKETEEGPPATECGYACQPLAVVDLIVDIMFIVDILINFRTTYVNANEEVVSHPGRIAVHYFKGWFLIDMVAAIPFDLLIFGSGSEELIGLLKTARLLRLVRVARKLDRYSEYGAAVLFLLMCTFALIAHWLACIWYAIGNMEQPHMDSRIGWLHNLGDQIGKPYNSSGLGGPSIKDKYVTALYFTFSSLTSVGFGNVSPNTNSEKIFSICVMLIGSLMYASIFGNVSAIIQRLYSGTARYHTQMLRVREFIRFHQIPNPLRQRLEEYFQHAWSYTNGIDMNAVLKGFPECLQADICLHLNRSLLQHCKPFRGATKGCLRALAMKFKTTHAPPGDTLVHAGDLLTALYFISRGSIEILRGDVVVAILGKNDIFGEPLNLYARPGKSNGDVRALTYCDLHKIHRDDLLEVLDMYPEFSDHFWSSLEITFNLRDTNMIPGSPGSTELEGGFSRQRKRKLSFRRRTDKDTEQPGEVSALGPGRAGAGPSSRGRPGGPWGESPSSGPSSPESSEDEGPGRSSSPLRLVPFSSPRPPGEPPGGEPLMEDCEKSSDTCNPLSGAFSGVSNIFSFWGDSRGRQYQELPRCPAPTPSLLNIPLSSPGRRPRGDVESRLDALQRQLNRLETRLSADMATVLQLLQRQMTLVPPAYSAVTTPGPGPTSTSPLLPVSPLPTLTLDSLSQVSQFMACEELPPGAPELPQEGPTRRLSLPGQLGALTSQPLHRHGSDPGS
Sequence of menin/MLL (terbium chelate-labeled menin, FITC-MBM1 peptide) (O00255 other isoform, or with tags, fused parts or gaps): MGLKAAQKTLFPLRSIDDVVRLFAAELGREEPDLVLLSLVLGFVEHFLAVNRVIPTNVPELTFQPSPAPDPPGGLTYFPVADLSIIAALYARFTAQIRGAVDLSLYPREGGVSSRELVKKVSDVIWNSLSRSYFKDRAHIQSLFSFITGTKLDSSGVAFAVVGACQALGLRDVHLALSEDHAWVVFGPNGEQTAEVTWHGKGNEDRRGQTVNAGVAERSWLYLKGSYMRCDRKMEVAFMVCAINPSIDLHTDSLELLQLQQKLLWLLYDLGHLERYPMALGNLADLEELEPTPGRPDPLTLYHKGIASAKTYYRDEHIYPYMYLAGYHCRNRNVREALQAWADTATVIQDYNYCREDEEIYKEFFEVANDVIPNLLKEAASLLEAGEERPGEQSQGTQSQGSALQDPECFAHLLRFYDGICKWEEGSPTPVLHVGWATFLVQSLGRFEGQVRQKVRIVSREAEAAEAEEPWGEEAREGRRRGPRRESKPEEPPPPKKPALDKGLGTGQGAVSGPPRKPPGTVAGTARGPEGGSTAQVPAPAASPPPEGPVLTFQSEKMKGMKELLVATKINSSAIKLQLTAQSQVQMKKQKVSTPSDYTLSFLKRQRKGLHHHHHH

For `CCN(C(=O)c1cc(F)ccc1Oc1nncnc1N1CCC2(C1)CN([C@H](CCCN(C)C(=O)OC)C(C)C)C2)C(C)C` [Compound 22, methyl (R)-(4-(6-(6-(2-(ethyl(isopropyl)carbamoyl)-4-fluorophenoxy)-1,2,4-triazin-5-yl)-2,6-diazaspiro[3.4]octan-2-yl)-5-methylhexyl)(methyl)carbamate], the pIC50 was 4.89 in series [1] (Homo sapiens, […]); 4.68 in series [2]; about 6.12 in series [3] (setting [8]); 8.75 in series [4]; 6.44 in series [5] (Homo sapiens, MOLM-14, […]).

Turning to `CCN(C(=O)c1cc(F)ccc1Oc1nncnc1N1CCC2(C1)CN([C@H](CCCNC(=O)OC)C(C)C)C2)C(C)C` [Compound 10, methyl (R)-(4-(6-(6-(2-(ethyl(isopropyl)carbamoyl)-4-fluorophenoxy)-1,2,4-triazin-5-yl)-2,6-diazaspiro[3.4]octan-2-yl)-5-methylhexyl)carbamate], the pIC50 in series [1] (Homo sapiens) is under 4.82; in series [6] (Homo sapiens, OCI-AML-3, OCI-AML3, 8 days), 5.77; in series [2], under 4.52; in series [3] (Homo sapiens, MOLM-14, 48 hours incubation), 6.39; in series [4], 9.74; in series [5] (Homo sapiens, MOLM-14), 6.47.

For `COCCN(C)CCC[C@H](C(C)C)N1CC2(CCN(c3ncnnc3Oc3ccc(F)cc3C(=O)N(C(C)C)C(C)C)C2)C1` (single isomer, unassigned) [Compound 94, (*R)-5-fluoro-N,N-isopropyl-2-((5-(2-(6-((2-methoxyethyl)(methyl)amino)-methylhexan-3-yl)-2,6-diazaspiro[3.4]octan-6-yl)-1,2,4-triazin-6-yl)oxy)benzamide oxalate], the pIC50 in series [1] (Homo sapiens, […]) was 5.32; in series [6] (setting [9]), 7.02; in series [2] it was 4.51; in series [3] (setting [8]), 8.09; in series [4], 9.92; in series [5] (Homo sapiens, MOLM-14, […]), 8.00.

Regarding `CCN(CCC[C@H](C(C)C)N1CC2(CCN(c3ncnnc3Oc3ccc(F)cc3C(=O)N(CC)C(C)C)C2)C1)CCOC` [Compound 71, (R)-N-ethyl-2-((5-(2-(6-(ethyl(2-methoxyethyl)amino)-2-methylhexan-3-yl)-2,6-diazaspiro[3.4]octan-6-yl)-1,2,4-triazin-6-yl)oxy)-5-fluoro-N-isopropylbenzamide], the pIC50 was 4.89 in series [1] (Homo sapiens, […]); 5.83 in series [6] (setting [9]); under 4.52 in series [2]; 6.42 in series [3] (setting [8]); 6.25 in series [5] (Homo sapiens, MOLM-14, […]).

With `CCN(C(=O)c1cc(F)ccc1Oc1nncnc1N1CCC2(C1)CN([C@H](CCCN(C)CCO)C(C)C)C2)C(C)C` [Compound 286, (R)-N-ethyl-5-fluoro-2-((5-(2-(6-((2-hydroxyethyl)(methyl)amino)-2-methylhexan-3-yl)-2,6-diazaspiro[3.4]octan-6-yl)-1,2,4-triazin-6-yl)oxy)-N-isopropylbenzamide], the pIC50 in series [1] was 4.64. The pIC50 in series [6] (OCI-AML3, 8 days) was 6.54. For the same molecule, in series [7], the “Color @ 0.1 μM (hazard score)” value was “Green”, the “Color @ 0.3 μM (hazard score)” value was “Green”, the “Color @ 1 μM (hazard score)” value is on record as “Green” and the “Color @ 3 μM (hazard score)” value is on record as “Green”. In series [7], the “Color @ 10 μM (hazard score)” value is recorded as “Green” and the “Color @ 30 μM (hazard score)” value was “Green”. Further, the pIC50 in series [3] (48 hours incubation) was 7.02. Further, in series [5], the pIC50 was 7.12.

As for `CCN(C(=O)c1cc(F)ccc1Oc1nncnc1N1CCC2(C1)CN(C(CCCO)C(C)C)C2)C(C)C` (stereo not drawn) [Compound 49, N-ethyl-5-fluoro-2-((5-(2-(6-hydroxy-2-methylhexan-3-yl)-2,6-diazaspiro[3.4]octan-6-yl)-1,2,4-triazin-6-yl)oxy)-N-isopropylbenzamide], the pIC50 in series [2] was under 4.52.

Turning to `CCN(C(=O)c1cc(F)ccc1Oc1nncnc1N1CCC2(C1)CN([C@H](CCCNC)C(C)C)C2)C(C)C` [Compound 398, (R)-N-ethyl-5-fluoro-N-isopropyl-2-((5-(2-(2-methyl-6-(methylamino)hexan-3-yl)-2,6-diazaspiro[3.4]octan-6-yl)-1,2,4-triazin-6-yl)oxy)benzamide], in series [1] (Homo sapiens, […]), the pIC50 is under 4.82. The molecule further showed a pIC50 in series [6] (setting [9]) of 6.66. In addition, in series [7], the “Color @ 0.1 μM (hazard score)” value is “Green”, the “Color @ 0.3 μM (hazard score)” value is “Green”, the “Color @ 1 μM (hazard score)” value is on record as “Green” and the “Color @ 3 μM (hazard score)” value is reported as “Green”. Further, in series [7], the “Color @ 10 μM (hazard score)” value was “Green” and the “Color @ 30 μM (hazard score)” value is recorded as “Green”. Moreover, the pIC50 in series [5] (Homo sapiens, MOLM-14, […]) was 7.19.
